In the assay the target is T1, Endothiapepsin (Cryphonectria parasitica, UniProt P11838).
T1 sequence (P11838 whole entry): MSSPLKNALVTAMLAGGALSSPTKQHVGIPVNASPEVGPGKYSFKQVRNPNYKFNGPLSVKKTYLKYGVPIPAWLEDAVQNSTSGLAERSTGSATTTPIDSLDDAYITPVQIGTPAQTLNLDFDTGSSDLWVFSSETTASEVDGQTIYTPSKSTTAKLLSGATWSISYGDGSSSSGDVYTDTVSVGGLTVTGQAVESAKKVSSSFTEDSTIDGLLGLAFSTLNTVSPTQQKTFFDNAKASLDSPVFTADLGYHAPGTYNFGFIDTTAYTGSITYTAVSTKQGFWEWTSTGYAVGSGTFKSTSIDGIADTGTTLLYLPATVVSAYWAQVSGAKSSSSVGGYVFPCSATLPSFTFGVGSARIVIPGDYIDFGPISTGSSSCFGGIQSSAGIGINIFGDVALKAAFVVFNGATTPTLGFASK
As to the kind of experiment: Inhibition of Cryphonectria parasitica endothiapepsin using 2-aminobenzoyl-Thr-Ile-Nle-Phe(p-NO2)-Gln-Arg-NH2 as substrate assessed as hydrolysis of substrate into 2-aminobenzoyl-Thr-Ile-Nle and Phe(p-NO2)-GLn-Arg-NH2 by fluorescence-based spectrophotometric analysis.

Consider `N[C@H](C(=O)N/N=C/C1CCCC1)c1ccc(C(F)(F)F)cc1` (mixture of isomers), for which the IC50 came out at 85 µM.

Take `N[C@H](C(=O)N/N=C/c1ccccc1)c1ccc(C(F)(F)F)cc1` (mixture of isomers): the IC50 is 210 µM.

For the origin of these results see ChEMBL document CHEMBL3739309, “Fragment growing exploiting dynamic combinatorial chemistry of inhibitors of the aspartic protease endothiapepsin” (Medchemcomm, 2015).
